The supplement of paper PMC10307832

Assays:
Experiment in all cases: relative viability (nuclei count vs DMSO), 5 days (fraction); higher = more cells survive
[1] = compound: C[As](C)SC[C@H](NC(=O)CC[C@H](N)C(=O)O)C(=O)NCC(=O)O [Darinaparsin] + CC(=O)Nc1cccc(-n2c(=O)n(C3CC3)c(=O)c3c(Nc4ccc(I)cc4F)n(C)c(=O)c(C)c32)c1 [Trametinib] (partner 0.02 µM)
In short: (§1)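 Lung cancer cell lines in 1536-well plates were dosed by pin tool the day after seeding, either with one drug alone or with a fixed anchor-drug dose plus five library-drug doses (not always all listed) in √10 steps. After 5 days, cells were fixed and their nuclei stained in one step (final 0.05% Triton X-100, 1% formaldehyde, 1 ug/ml Hoechst), then counted on 4× images. Relative viability is the nuclei count in treated wells divided by that in vehicle wells. Values are medians of duplicate plates.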

AZ628 + Dasatinib = compound: CC1=C(C=C(C=C1)NC(=O)C2=CC(=CC=C2)C(C)(C)C#N)NC3=CC4=C(C=C3)N=CN(C4=O)C [AZ628] + Cc1nc(Nc2ncc(C(=O)Nc3c(C)cccc3Cl)s2)cc(N2CCN(CCO)CC2)n1 [Dasatinib] (partner 0.075 µM)
In short: as §1

QS11 + Decitabine = compound: C1CC2=C(C1)C=C(C=C2)OC3=NC(=C4C(=N3)N(C=N4)CC5=CC=C(C=C5)C6=CC=CC=C6)N[C@@H](CC7=CC=CC=C7)CO [QS11] + Nc1ncn([C@H]2C[C@H](O)[C@@H](CO)O2)c(=O)n1 [Decitabine] (partner 2 µM)
In short: as §1

[2] = compound: C[As](C)SC[C@H](NC(=O)CC[C@H](N)C(=O)O)C(=O)NCC(=O)O [Darinaparsin] + CC(C)C[C@H](NC(=O)[C@H](Cc1ccccc1)NC(=O)c1cnccn1)B(O)O [Bortezomib] (partner 0.002 µM)
In short: as §1

Cell Line | relative viability ([1]; first compound 0.08 µM) | relative viability ([1]; first compound 0.8 µM) | relative viability ([1]; first compound 2.53 µM) | relative viability ([1]; first compound 8 µM) | relative viability (AZ628 + Dasatinib; first compound 0.08 µM) | relative viability (AZ628 + Dasatinib; first compound 0.253 µM) | relative viability (AZ628 + Dasatinib; first compound 0.8 µM) | relative viability (AZ628 + Dasatinib; first compound 2.53 µM) | relative viability (AZ628 + Dasatinib; first compound 8 µM) | relative viability (QS11 + Decitabine; first compound 0.08 µM) | relative viability (QS11 + Decitabine; first compound 0.253 µM) | relative viability (QS11 + Decitabine; first compound 0.8 µM) | relative viability (QS11 + Decitabine; first compound 2.53 µM) | relative viability (QS11 + Decitabine; first compound 8 µM) | relative viability ([2]; first compound 0.08 µM) | relative viability ([2]; first compound 0.8 µM) | relative viability ([2]; first compound 2.53 µM) | relative viability ([2]; first compound 8 µM)
NCI-H1355 | 0.462 | 0.403 | 0.378 | 0.426 | 0.723 | 0.663 | 0.611 | 0.626 | 0.458 | 0.34 | 0.31 | 0.333 | 0.349 | 0.346 | 1.38 | 1.13 | 1.19 | 1.36
NCI-H1650 | 0.915 | 0.49 | 0.593 | 0.636 | 0.319 | 0.366 | 0.318 | 0.296 | 0.249 | 0.453 | 0.447 | 0.296 | 0.56 | 0.406 | 0.216 | 0.193 | 0.193 | 0.195
H3255 | 0.595 | 0.812 | 0.574 | 0.62 | 0.311 | 0.362 | 0.319 | 0.351 | 0.252 | 0.578 | 0.64 |  | 0.556 | 0.674 | 0.794 | 0.835 | 0.79 | 0.945
NCI-H23 | 0.402 | 0.339 | 0.43 | 0.409 | 0.708 | 0.75 | 0.44 | 0.509 | 0.302 | 0.282 | 0.305 | 0.311 | 0.292 | 0.317 | 1.17 | 1.19 | 0.795 | 1.14
NCI-H1755 | 0.811 | 0.795 | 0.857 | 0.844 | 0.459 | 0.39 | 0.417 | 0.381 | 0.326 | 0.625 | 0.715 | 0.535 | 0.685 | 0.671 | 1.04 | 0.94 | 0.915 | 1.18
NCI-H650 | 0.856 | 1.01 | 1.04 | 0.956 | 0.529 | 0.487 | 0.463 | 0.558 | 0.434 | 0.283 | 0.365 | 0.347 | 0.298 | 0.322 | 0.881 | 0.894 | 0.728 | 0.776
NCI-H1437 | 0.594 | 0.562 | 0.505 | 0.674 | 0.415 | 0.242 | 0.275 | 0.43 | 0.39 | 0.557 | 0.649 | 0.432 | 0.585 | 0.531 | 0.562 | 0.558 | 0.468 | 0.584
NCI-H460 | 0.312 | 0.329 | 0.12 | 0.166 | 0.569 | 0.428 | 0.362 | 0.407 | 0.132 | 0.578 | 0.477 | 0.298 | 0.503 | 0.382 |  | 1.11 | 0.703 | 1.84
